From patent US5340800A, “Peptide medicaments for the treatment of disease” (priority 1992, dated 1994)
Like-named read-outs stand apart in the source and are kept apart here. No end group written: not given here.

Columns and labels:
[1] = test system: polymorphonuclear leukocyte adhesion to endothelial cells activated with IL1; type: cell-based, human
[2] = test system: polymorphonuclear leukocyte migration; test: Chemotaxis of polymorphonuclear leukocytes (trans-well, zymosan-activated human serum); type: cell-based; settings: for % Inhibition of Migration (neutrophil chemotaxis): 0.5% zymosan-activated human serum
Description: The materials and methods for ascertaining the chemotactic inhibitory properties of peptides are generally known in the art, and the preferred procedure is described by Capsoni, et al., 1989, J. of Immunol. Meth., 120:125. Generally, chemotaxis is determined by positioning the leukocytes and a chemotactic substance on opposite sides of a membrane in appropriate culture media. The preferred apparatus for doing a chemotaxis assay is produced by Costar Corporation, Cambridge, Mass., and is termed the trans-well cell culture apparatus. […] If a substance is being tested for inhibitory activity this can be achieved by combining it with the leukocytes or the chemotactic substance.
The procedure of Capsoni, et al., above, was followed with the following modifications. Leukocytes may be isolated and labelled with ^111 Indium as described for the adhesion assay, above. The cells are resuspended after labelling in an appropriate cell culture medium at about 5×10^6 cells/ml. Next, a desired amount of the cell suspension is mixed with a predetermined amount of the peptide(s) to be tested for inhibitory activity, and the mixture added to an appropriate filter device. Three μm-pore membranes are situated in the wells of a 24 trans-well tissue culture plate. The cell/inhibitory peptide mixture is incubated for a short time at 37° C. to acclimate the cells to the membrane surface, and to provide sufficient time for them to settle onto the membrane surface. Next, inserts are set in wells containing cell culture media. The media contains zymosan-activated human serum at about 0.5%. Zymosan activation generates complement-derived chemotactic factors which attract the leukocytes through the pores of the membrane. This media was also prewarmed for an appropriate time prior to addition to the cell culture wells. After a 30 minute incubation period at 37° C., the number of leukocytes that have migrated through the membrane filter, in the presence or absence of CD18 peptides, is readily determined by counting the amount of ^111 Indium present in the media. This may be facilitated by adding an appropriate detergent at an appropriate concentration to the media in the wells prior to removing an aliquot for counting. In this way, the inhibitory activities of the peptide being tested could be determined.
Many of the materials and methods used to test the inhibitory activity of the CD18 peptides on the chemotactic response of the polymorphonuclear leukocytes are similar or identical to those used to perform the adhesion assays described in Example 1. Polymorphonuclear leukocytes were isolated and labelled with ^111 Indium as described before, and the cells were suspended in RPMI 1640 culture medium at a concentration of 5×10^6 /ml. Next, 75 μl of the cell suspension and 25 μl of media containing a desired concentration of a CD18 peptide were added to trans-well inserts, and the mixture was incubated at 37° C. for 10 minutes.
To the bottom wells of the 24-well plate 0.6 ml of media containing 0.5% zymosan-activated human serum was added. This solution was also warmed to 37° C. for 10 minutes prior to use.
Next, the assay was conducted by incubating the trans-well inserts containing the cell suspension with the desired CD18 peptide in the 24-well plates at 37° C. for 30 minutes. Subsequently, the inserts were removed, and 60 μl of a 10% sodium dodecyl sulphate solution was added to the wells of the 24-well plate. The plates were incubated with gentle shaking at room temperature for 15 minutes, and 110 μl aliquots were removed and the amount of ^111 Indium determined using a gamma-counter.

With “IGWRNVTRLLVFATDDGFHFAGDGKLGAI [Peptide 4-29, NH2 --Ile--Gly--Trp--Arg--Asn--Val--Thr--Arg--Leu--Leu--Val--Phe--Ala--Thr--Asp--Asp--Gly--Phe--His--Phe--Ala--Gly--Asp--Gly--Lys--Leu--Gly--Ala--Ile--COOH]” the “Percent Change in PMN Adhesion to ECs activated with IL1” value (from here on “Percent Change in PMN Adhesion”) ([1]; 10^-7 M, donor 155*, peptide 1 wk 4°) was “+59%”, the “Percent Change in PMN Adhesion” value ([1]; 10^-7 M, donor 272*, peptide 1 wk 4°) was “+2%” and the “Percent Change in PMN Adhesion” value ([1]; 10^-8 M, donor 108*, peptide frozen) was “+21%”. The “Percent Change in PMN Adhesion” value ([1]; 10^-8 M, donor 489*, peptide frozen) was -3%, the “concentration of peak activity in chemotaxis inhibition” value ([2]; 6 donors, 10^-4 -10^-7) was 10^-5 M and the “inhibition of chemotaxis migration (in words)” value ([2]; 10^-4 -10^-5 M) was “marked inhibition”. The “% Inhibition of Migration (neutrophil chemotaxis)” value (“% Inhibition of Migration” below) ([2]; 10^-4 M, donor 140) was 83%, the “percent inhibition (-) or enhancement of polymorphonuclear leukocyte migration” value (“percent inhibition (-) or enhancement” below) ([2]; 10^-4 M, donor 195) was -93% and the “% Inhibition of Migration” value ([2]; 10^-4 M, donor 195) was 76%. The “% Inhibition of Migration” value ([2]; 10^-4 M, donor 279) was 74%, the “% Inhibition of Migration” value ([2]; 10^-4 M, donor 363) was 76% and the “percent inhibition (-) or enhancement” value ([2]; 10^-4 M, donor 499) was -87%. For the same sequence, the “percent inhibition (-) or enhancement” value ([2]; 10^-4 M, donor 591) was -74%, the “percent inhibition (-) or enhancement” value ([2]; 10^-4 M, donor 593) was -88% and the “% Inhibition of Migration” value ([2]; 10^-5 M, donor 140) was 69%. For the same sequence, the “% Inhibition of Migration” value ([2]; 10^-5 M, donor 169) was 75%, the “percent inhibition (-) or enhancement” value ([2]; 10^-5 M, donor 195) was -93% and the “% Inhibition of Migration” value ([2]; 10^-5 M, donor 195) was 87%. The “% Inhibition of Migration” value ([2]; 10^-5 M, donor 279) was 49%, the “% Inhibition of Migration” value ([2]; 10^-5 M, donor 359) was 74% and the “% Inhibition of Migration” value ([2]; 10^-5 M, donor 363) was 79%. For the same sequence, the “percent inhibition (-) or enhancement” value ([2]; 10^-5 M, donor 499) was -79%, the “percent inhibition (-) or enhancement” value ([2]; 10^-5 M, donor 591) was -88% and the “percent inhibition (-) or enhancement” value ([2]; 10^-5 M, donor 593) was -88%. The “% Inhibition of Migration” value ([2]; 10^-6 M, donor 140) was 2%, the “percent inhibition (-) or enhancement” value ([2]; 10^-6 M, donor 195) was 11% and the “% Inhibition of Migration” value ([2]; 10^-6 M, donor 195) was 34%. For the same sequence, the “% Inhibition of Migration” value ([2]; 10^-6 M, donor 279) was 17%, the “% Inhibition of Migration” value ([2]; 10^-6 M, donor 363) was 34% and the “percent inhibition (-) or enhancement” value ([2]; 10^-6 M, donor 499) was 0%. The “percent inhibition (-) or enhancement” value ([2]; 10^-6 M, donor 591) was 0%, the “percent inhibition (-) or enhancement” value ([2]; 10^-6 M, donor 593) was 4% and the “% Inhibition of Migration” value ([2]; 10^-7 M, donor 140) was 0%. For the same sequence, the “% Inhibition of Migration” value ([2]; 10^-7 M, donor 279) was 0% and the “inhibitory activity on chemotaxis (in words)” value ([2]; PMNs from 6 donors) was “significant activity being observed for all donors”.
